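Cultured in 96-well plates, cells were exposed to test compound for 48 hours across five concentrations. GI50 = concentration required for 50% inhibition of growth. TGI: total growth inhibition.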 Where a SMILES comes first, the peptide text is derived from it. The star is where a group is joined. Boc = CC(C)(C)OC(=O)*; OBn = c1ccc(CO*)cc1
Tests used:
Experiment in all cases: NCI tumour cell line growth inhibition, 48 h
[1] = test system: U251 CNS
[2] = test system: LXFL 529 NSCLC
[3] = test system: SNB-78 CNS
[4] = test system: DMS 114 small cell lung
[5] = test system: DLD-1 colon
[6] = test system: RXF-631 renal
[7] = test system: HOP-18 NSCLC
[8] = test system: DMS 273 small cell lung
[9] = test system: KM20L2 colon
[10] = test system: XF 498 CNS
[11] = test system: M19-MEL melanoma

C=CCN(c1cc(OCc2ccccc2)c2c(c1)c(C)cn2S(=O)(=O)c1ccccc1)S(C)(=O)=O was tested, and the TGI [1] was greater than 100 µM.

With COc1cc(/C=C2/C(=O)N=C(NC(C)=O)N2C)ccc1OC(C)=O the TGI [1] was greater than 100 µM.

Cc1ccc(C2SC(N)=Nc3c2c(C)nn3C(=O)c2ccc(Cl)cc2)cc1 (stereo unspecified) showed a TGI [1] greater than 10 µM.

Cc1cc(S(=O)(=O)Nc2nc(N)nc(N(C)C)n2)c(SC(C(=O)O)c2ccccc2)cc1Cl (stereo unspecified) gave a TGI [1] greater than 10 µM.

Work on CCCCCCCCCCCCCCC[C@@H](O)C[N+](C)(C)CCO yielded a TGI [1] of 2.59 µM.

CC(=O)[C@]1(C)[C@H](C)O[C@](C)(CO)[C@H]1O[Si](C)(C)c1ccccc1 was tested, and the TGI [1] was greater than 100 µM.

Cc1ccc(N=Nc2c(C)nn(C(=O)CC(=O)Nc3ccc(Cl)cc3)c2C)cc1C was tested, and the TGI [1] was greater than 100 µM.

Compound O=[N+]([O-])c1cc(C(F)(F)F)ccc1S(=O)(=O)N[C@@H]1CCCC[C@H]1NS(=O)(=O)c1ccc(C(F)(F)F)cc1[N+](=O)[O-] has a TGI [1] of 17.1 µM.

In the case of O=c1c2ccccc2n2n1Cc1ccccc1C2, the TGI [1] was greater than 100 µM.

NC(N)=NCCCC(NCc1c2ccccc2[n+]([O-])c2ccccc12)C(=O)O (stereo unspecified) showed a TGI [2] greater than 100 µM, a TGI [3] greater than 100 µM and a TGI [1] greater than 100 µM. The TGI [4] was greater than 100 µM, the TGI [5] was greater than 100 µM and the TGI [6] was greater than 100 µM. The TGI [7] was greater than 100 µM, the TGI [8] was greater than 100 µM and the TGI [9] was greater than 100 µM.

Work on CC(C)C(NC(=O)CNC(=O)C1CCCN1C(=O)C(NC(=O)OC(C)(C)C)C(C)C)C(=O)NCC(=O)OCc1ccccc1 (stereo unspecified) (Boc-VPGVG-OBn; configuration not given here) yielded a TGI [1] greater than 100 µM.

O=C1c2ccccc2-n2c1nc1cc(Cl)ccc1c2=O showed a TGI [1] greater than 100 µM.

With CCOC(=O)c1nc2cc(C(F)(F)F)ccc2nc1Oc1ccc(C(=O)OC)cc1 the TGI [1] was greater than 100 µM.

Cc1ccc(-c2n[nH]c(=O)n2N2C(=O)C=CC2=O)cc1 gave a TGI [1] greater than 100 µM.

Compound O=C(/C=C/c1ccc(O)cc1)c1cc(O)cc(O)c1 has a TGI [1] of 27.5 µM.

For CCCCCCCCCCCCCCCCNc1ccc2c(c1)OCCOCCOCCOCCO2, the TGI [1] was 10.4 µM.

With CC(C(=O)N1C(=O)N(C(=O)[C@H](C)C(O)c2ccccc2)[C@H](c2ccccc2)[C@H]1c1ccccc1)[C@@H](O)c1ccccc1 (stereo partly specified) the TGI [1] was greater than 100 µM.

Nc1nc(Sc2ccc([N+](=O)[O-])cn2)c2[nH]cnc2n1 gave a TGI [1] greater than 64.3 µM.

Work on COC(=O)C1CCC[C@H]2C(CO)=C(C)C(=O)[C@@H]12 (stereo partly specified) yielded a TGI [2] greater than 100 µM, a TGI [3] greater than 100 µM and a TGI [1] greater than 100 µM. It also gave a TGI [4] greater than 100 µM, a TGI [5] greater than 100 µM and a TGI [7] greater than 100 µM. The TGI [8] was greater than 100 µM, the TGI [10] was greater than 100 µM and the TGI [9] was greater than 100 µM.

In the case of COc1cc2c(cc1O)-c1c(OC)c(O)cc3c1C(C2)N(C)CC3 (stereo unspecified), the TGI [1] was greater than 100 µM.

For Cc1ccc(C(=O)c2[nH]c(Nc3ccc(Cl)cc3)c(C(=S)Nc3ccccc3)c2N)cc1, the TGI [1] was 9.02 µM.

CCOc1ccc(N=Nc2c(-c3ccccc3)nn(C(=O)CC(=O)Nc3cccc(C)c3)c2-c2ccccc2)cc1 was tested, and the TGI [2] was greater than 100 µM, the TGI [3] was greater than 100 µM and the TGI [1] was greater than 100 µM. The TGI [4] was greater than 100 µM, the TGI [5] was greater than 100 µM and the TGI [6] was greater than 100 µM. The TGI [7] was greater than 100 µM, the TGI [8] was greater than 100 µM and the TGI [10] was greater than 100 µM. The TGI [9] was greater than 100 µM.

Cc1ccc(Nc2cc(=O)[nH]c(=O)[nH]2)cc1CS gave a TGI [1] greater than 100 µM.

O=C1NCC2(CCNCC2)N1 showed a TGI [1] greater than 100 µM.

Compound CCN(CC)c1nc(=O)c(C(=O)C(C)(C)C)c(C(C)(C)C)o1 has a TGI [1] greater than 100 µM.

For O=C(Nc1ccc(N2C(=O)CSC2c2cccs2)cc1)c1ccc(N2C(=O)CSC2c2cccs2)cc1 (stereo unspecified), the TGI [1] was greater than 100 µM.

In the case of COc1cc2c(cc1OC)C1(c3ccccc3)ON=C(c3ccccc3)N1CS2 (stereo unspecified), the TGI [2] was greater than 100 µM, the TGI [3] was greater than 100 µM and the TGI [11] was greater than 100 µM. The TGI [1] was greater than 100 µM, the TGI [4] was greater than 100 µM and the TGI [5] was greater than 100 µM. For the same compound, the TGI [6] was greater than 100 µM, the TGI [7] was greater than 100 µM and the TGI [8] was greater than 100 µM. The TGI [10] was greater than 100 µM and the TGI [9] was greater than 100 µM.

CCCCCCCSCC1OC(n2cnc3c(N)ncnc32)C(O)C1O (stereo unspecified) was tested, and the TGI [2] was 29.8 µM, the TGI [3] was greater than 100 µM and the TGI [1] was greater than 100 µM. For the same compound, the TGI [4] was 71.1 µM, the TGI [5] was 28.7 µM and the TGI [7] was 68.2 µM. For the same compound, the TGI [8] was 54.2 µM, the TGI [10] was 97.6 µM and the TGI [9] was greater than 100 µM.

Compound O=C(Nn1c(-c2ccccc2)nc2ccccc2c1=O)c1ccc(O)cc1 has a TGI [1] greater than 100 µM.

With N#Cc1nc(C2SCCCS2)oc1N the TGI [1] was greater than 100 µM.

Work on COC1CC(n2ccc(=O)[nH]c2=O)OC1CO (stereo unspecified) yielded a TGI [1] greater than 100 µM.

O=C1C(Cl)C(c2cccc(Br)c2)N1c1c(O)c(Cl)cc(Br)c1Cl (stereo unspecified) was tested, and the TGI [1] was 25.3 µM.

With Cc1cn(C2CC(N=[N+]=[N-])C(CO)O2)c(=O)n(CCCCO)c1=O (stereo unspecified) the TGI [1] was greater than 100 µM.

CCOC(=O)NC(C(C(=O)OCC)C(=O)OCC)(C(F)(F)F)C(F)(F)F was tested, and the TGI [1] was greater than 100 µM.

CC1C(=O)CC[C@@]2(C)C(=O)CCCC12O (stereo partly specified) gave a TGI [1] greater than 100 µM.

CC(=O)OC(C#N)CC(C)(C)/[N+]([O-])=[N+](\[O-])C(C)(C)CC(C#N)OC(C)=O (stereo unspecified) gave a TGI [1] of 39.5 µM.

For COCN1C(=O)[C@@H]2CCCN2C(=O)c2cc(Cl)ccc21, the TGI [1] was greater than 100 µM.

For CC(=O)NC(CCCOC(C)=O)C(=O)NC(CCCOC(C)=O)C(=O)NC(CCCOC(C)=O)C(=O)NC(Cc1ccc([N+](=O)[O-])cc1)C(=O)NCC(=O)OCc1ccccc1 (stereo unspecified), the TGI [1] was greater than 100 µM.

Work on COc1ccc2[nH]cc(CN3CCC(CO)(c4ccccc4)CC3)c2c1 yielded a TGI [1] greater than 100 µM.

In the case of CCCC(=O)[O-].CCCC(=O)[O-].N.N.N.N.[Co+3].[O-][Cl+3]([O-])([O-])[O-], the GI50 [2] was greater than 100 µM, the TGI [2] was greater than 100 µM and the GI50 [3] was greater than 100 µM. It also gave a TGI [3] greater than 100 µM, a TGI [1] greater than 100 µM and a GI50 [5] greater than 100 µM. It also gave a TGI [5] greater than 100 µM, a GI50 [9] greater than 100 µM and a TGI [9] greater than 100 µM.

Reference: PubChem BioAssay (NCI)
